{"source": "paper PMC10218941", "about": "“Design, Synthesis, Antiproliferative Actions, and DFT Studies of New Bis–Pyrazoline Derivatives as Dual EGFR/BRAF^V600E Inhibitors” (International Journal of Molecular Sciences, 2023)", "key": {"[1]": {"tested_on": "Bax", "experiment": "Bax level assay", "format": "cell-based, human", "settings": "MCF-7 cells; for Bax Fold Change: versus untreated control", "description": "(§1) Additionally, the effects of compounds 12 and 17 on the levels of caspase-8, Bax, and Bacl-2 in the MCF-7 cancer cell line and staurosporine as a control were examined. […]\nCells were obtained from American Type Culture Collection, cells were grown in RPMI 1640 containing 10% fetal bovine serum at 37°C, stimulated with the compounds to be tested for caspase8, and lysed with Cell Extraction Buffer. This lysate was diluted in Standard Diluent Buffer over the range of the assay and measured for human active caspase-8 content. […]\n4.2.5. Bax activation assay\nBring all reagents, except the human Bax-α Standard, to room temperature for at least 30 minutes prior to opening. The human Bax-α Standard solution should not be left at room temperature for more than 10 minutes. All standards, controls and samples should be run in duplicate. Refer to the Assay Layout Sheet to determine the number of wells to be used and put any remaining wells with the desiccant back into the pouch and seal the ziploc. Store unused wells at 4 °C. Pipet 100 μL of Assay Buffer into the S0 (0 pg/mL standard) wells. Pipet 100 μL of Standards #1 through #6 into the appropriate wells. Pipet 100 μL of the Samples into the appropriate wells. Tap the plate gently to mix the contents. Seal the plate and incubate at room temperature on a plate shaker for 1 hour at ~500 rpm. Empty the contents of the wells and wash by adding 400 μL of wash solution to every well. Repeat the wash 4 more times for a total of 5 washes. After the final wash, empty or aspirate the wells and firmly tap the plate on a lint free paper towel to remove any remaining wash buffer. Pipet 100 μL of yellow Antibody into each well, except the Blank. Seal the plate and incubate at room temperature on a plate shaker for 1 hour at ~500 rpm. Empty the contents of the wells and wash by adding 400 μL of wash solution to every well. Repeat the wash 4 more times for a total of 5 washes. After the final wash, empty or aspirate the wells and firmly tap the plate on a lint free paper towel to remove any remaining wash buffer. Add 100 μL of blue Conjugate to each well, except the Blank. Seal the plate and incubate at room temperature on a plate shaker for 30 minutes at ~500 rpm. Empty the contents of the wells and wash by adding 400 μL of wash solution to every well. Repeat the wash 4 more times for a total of 5 washes. After the final wash, empty or aspirate the wells and firmly tap the plate on a lint free paper towel to remove any remaining wash buffer. Pipet 100 μL of Substrate Solution into each well. Incubate for 30 minutes at room temperature on a plate shaker at ~500 rpm. Pipet 100 μL Stop Solution to each well. Blank the plate reader against the Blank wells, read the optical density at 450 nm. Calculate the average net Optical Density (OD) bound for each standard and sample by subtracting the average Blank OD from the average OD for each standard and sample.\nUsing linear graph paper, plot the Average Net OD for each standard versus Bax concentration in each standard. Approximate a straight line through the points. The concentration of Bax in the unknowns can be determined by interpolation. […]\nCover with a plate cover and incubate at room temperature, on a microplate shaker at 100 rpm if available, for 2 hours. Remove plate cover and empty the wells.\n(§2) Wash microwell strips 3 times as described in step 2. Add 100 μL of diluted Streptavidin-HRP to all wells, including the blank wells. Cover with a plate cover and incubate at room temperature, on a microplate shaker at 100 rpm if available, for 1 hour. Remove plate cover and empty the wells.\n(§3) Wash microwell strips 3 times as described in step 2. Proceed to the next step. Pipette 100 μl of mixed TMB Substrate Solution to all wells, including the blanks. Incubate the microwell strips at room temperature (18° to 25°C) for about 15 minutes, if available on a rotator set at 100 rpm.\nAvoid direct exposure to intense light. […]"}, "[2]": {"molecular_target": "BRAF^V600E", "sequence (P28028 whole entry V585E)": "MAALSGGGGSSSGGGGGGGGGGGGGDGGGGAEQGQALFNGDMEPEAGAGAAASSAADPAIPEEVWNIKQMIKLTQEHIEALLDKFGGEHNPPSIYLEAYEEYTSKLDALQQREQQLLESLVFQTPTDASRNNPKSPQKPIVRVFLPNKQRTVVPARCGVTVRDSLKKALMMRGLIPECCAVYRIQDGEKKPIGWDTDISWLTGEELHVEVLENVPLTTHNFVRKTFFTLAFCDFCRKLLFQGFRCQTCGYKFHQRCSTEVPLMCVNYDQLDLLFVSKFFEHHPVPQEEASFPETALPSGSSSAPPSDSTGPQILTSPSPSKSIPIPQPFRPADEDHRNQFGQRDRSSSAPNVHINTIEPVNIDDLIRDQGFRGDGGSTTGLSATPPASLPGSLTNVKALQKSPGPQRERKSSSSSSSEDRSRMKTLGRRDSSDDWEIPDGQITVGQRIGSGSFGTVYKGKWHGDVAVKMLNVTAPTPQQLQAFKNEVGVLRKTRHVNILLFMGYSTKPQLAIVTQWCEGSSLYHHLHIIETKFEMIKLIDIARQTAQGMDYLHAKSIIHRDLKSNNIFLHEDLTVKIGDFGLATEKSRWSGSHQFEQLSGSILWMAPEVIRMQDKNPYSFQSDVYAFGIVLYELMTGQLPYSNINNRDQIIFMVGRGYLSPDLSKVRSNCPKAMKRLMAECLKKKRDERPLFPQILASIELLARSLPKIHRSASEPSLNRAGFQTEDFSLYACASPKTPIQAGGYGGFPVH", "experiment": "BRAF^V600E inhibitory assay"}, "[3]": {"tested_on": "Bcl-2", "experiment": "Bcl-2 level assay", "format": "cell-based, human", "settings": "MCF-7 cells; for Bcl-2 Fold Reduction: versus untreated control", "description": "as §1\n4.2.6. Bcl-2inhibition assay\nMix all reagents thoroughly without foaming before use. Wash the microwells twice with approximately 300 μL Wash Buffer per well with thorough aspiration of microwell contents between washes. Take caution not to scratch the surface of the microwells. After the last wash, empty the wells and tap microwell strips on absorbent pad or paper towel to remove excess Wash Buffer. Use the microwell strips immediately after washing or place upside down on a wet absorbent paper for not longer than 15 minutes. […] Add 100 μL of Sample […]\nDiluent in duplicate to all standard wells and to the blank wells. Prepare standard (1:2 dilution) in duplicate ranging from 32 ng/mL to 0.5 ng/mL. Add 100 μL of Sample Diluent, in duplicate, to the blank wells. Add 80 μL of Sample Diluent, in duplicate, to the sample wells. Add 20 μL of each Sample, in duplicate, to the designated wells. Add 50 μL of diluted biotin-conjugate to all wells, including the blank wells. Cover with a plate cover and incubate at room temperature, on a microplate shaker at 100 rpm if available, for 2 hours. Remove plate cover and empty the wells.\nas §2, §3\nAvoid direct exposure to intense light. The point, at which the substrate reaction is stopped, is often determined by the ELISA reader. Many ELISA readers record absorbance only up to 2.0\nO.D. Therefore, the color development within individual microwells must be watched by the person running the assay and the substrate reaction stopped before positive wells are no longer properly detectable. Stop the enzyme reaction by quickly pipetting 100 μL of Stop Solution into each well, including the blank wells. It is important that the Stop Solution is spread quickly and uniformly throughout the microwells to completely inactivate the enzyme. Results must be read immediately after the Stop Solution is added or within one hour if the microwell strips are stored at 2 - 8°C in the dark. Read absorbance of each microwell on a spectrophotometer using 450 nm as the primary wavelength.\n4.3. Statistical analysis\nComputerized Prism 5 program was used to statistically analyzed data using one-way ANOVA test followed by Tukey’s as post ANOVA for multiple comparison at P ≤.05. Data were presented"}}}
{"molecule": "COc1ccc(C2CC(c3ccc(OCC(=O)Nc4ccc(C5=NNC(c6ccc(OC)c(OC)c6)C5)cc4)cc3)=NN2)cc1", "note": "(centres unmarked) [Compound 12, 2-(4-(5-(4-Methoxyphenyl)-4,5-dihydro-1H-pyrazol-3-yl)phenoxy)-N-(4-(5-(3,4-dimethoxyphenyl)-4,5-dihydro-1H-pyrazol-3-yl)phenyl)acetamide]", "values": [{"measurement": "Bax Conc", "setting": "[1]", "value": 296, "unit": "pg/mL"}, {"measurement": "Bax Fold Change", "setting": "[1]", "value": 37}, {"measurement": "IC50", "setting": "[2]", "value": "93 ± 6", "unit": "nM"}, {"measurement": "Bcl-2 Conc", "setting": "[3]", "value": 1.05, "unit": "ng/mL"}, {"measurement": "Bcl-2 Fold Reduction", "setting": "[3]", "value": 5}]}
{"molecule": "CN[C@@H]1C[C@H]2O[C@@](C)([C@@H]1OC)n1c3ccccc3c3c4c(c5c6ccccc6n2c5c31)C(=O)NC4", "note": "[Staurosporine, reference compound]", "values": [{"measurement": "Bax Conc", "setting": "[1]", "value": 280, "unit": "pg/mL"}, {"measurement": "Bax Fold Change", "setting": "[1]", "value": 35}, {"measurement": "Bcl-2 Conc", "setting": "[3]", "value": 1.10, "unit": "ng/mL"}, {"measurement": "Bcl-2 Fold Reduction", "setting": "[3]", "value": 5}]}
{"molecule": "COc1ccc(C2CC(c3ccc(NC(=O)COc4ccc(C5=NNC(c6ccc(OC)c(OC)c6)C5)cc4)cc3)=NN2)cc1", "note": "(centres unmarked) [Compound 17, 2-(4-(5-(3,4-Dimethoxyphenyl)-4,5-dihydro-1H-pyrazol-3-yl)phenoxy)-N-(4-(5-(4-methoxyphenyl)-4,5-dihydro-1H-pyrazol-3-yl)phenyl)acetamide]", "values": [{"measurement": "Bax Conc", "setting": "[1]", "value": 285, "unit": "pg/mL"}, {"measurement": "Bax Fold Change", "setting": "[1]", "value": 35}, {"measurement": "IC50", "setting": "[2]", "value": "107 ± 9", "unit": "nM"}, {"measurement": "Bcl-2 Conc", "setting": "[3]", "value": 1.15, "unit": "ng/mL"}, {"measurement": "Bcl-2 Fold Reduction", "setting": "[3]", "value": 4}]}
